Source: patent publication US8791148B2, “Substituted benzimidazolone derivatives, medicaments comprising them and their use” (AbbVie Deutschland GmbH & Co. KG, priority 2006, dated 2014)

Each molecule was assayed against T1, human vasopressin V1b receptor (Homo sapiens, UniProt P47901) (assay: Vasopressin V1b receptor binding assay). Conditions: membranes from CHO-K1 cells with stably expressed human V1b receptors; displacement of 1.5 nM 3H-AVP; read-out: V1b receptor affinity (affinity constant Ki).
T1 construct: expressed in transfected cells; host or cells: CHO-K1 (cell line hV1b-3H2_CHO), membrane preparation
T1 sequence (P47901 1-424): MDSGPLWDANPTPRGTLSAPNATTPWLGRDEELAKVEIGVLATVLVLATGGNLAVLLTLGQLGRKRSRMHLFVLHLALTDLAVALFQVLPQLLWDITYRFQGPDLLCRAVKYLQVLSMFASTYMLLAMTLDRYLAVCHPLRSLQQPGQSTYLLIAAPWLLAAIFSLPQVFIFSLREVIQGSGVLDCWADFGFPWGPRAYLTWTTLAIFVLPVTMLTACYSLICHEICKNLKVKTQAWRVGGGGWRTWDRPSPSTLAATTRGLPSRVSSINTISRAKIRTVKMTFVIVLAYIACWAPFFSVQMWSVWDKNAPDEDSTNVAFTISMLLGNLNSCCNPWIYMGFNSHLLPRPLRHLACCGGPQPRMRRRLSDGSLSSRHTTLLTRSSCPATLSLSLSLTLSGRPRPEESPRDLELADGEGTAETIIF
Experimental: Vasopressin V1b Receptor Binding Assay:
The test substances were dissolved in a concentration of 10^−2 M in DMSO and further diluted to 5×10^−4 M to 5×10^−9 M in DMSO. This series of DMSO predilutions was diluted 1:10 with assay buffer. The substance concentration was again diluted 1:5 in the assay mixture (2% DMSO in the mixture).
The membrane pellet was again homogenized and centrifuged as described and then taken up in 50 mM Tris-HCl, pH 7.4, homogenized and stored in aliquots frozen in liquid nitrogen at −190° C.
The incubation buffer was: 50 mM Tris, 10 mM MgCl2, 0.1% BSA, pH 7.4. […] The nonspecific binding was determined with 1 uM AVP (Bachem #H1780). All determinations were carried out as triplicate determinations. After incubation (60 minutes at room temperature), the free radioligand was removed by vacuum filtration (Skatron cell harvester 7000) through Wathman GF/B glass fiber filter mats, and the filters were transferred into scintillation vials. The liquid scintillation measurement took place in a Tricarb model 2000 or 2200CA instrument (Packard). Conversion of the measured cpm into dpm was carried out with the aid of a standard quench series.
The binding parameters were calculated by nonlinear regression in SAS.
The above assay was used to measure the affinities of the compounds of the invention for the human vasopressin V1b receptor and to determine the affinity constants (Ki).

**Q.** Which Ki does the source give for `COc1ccc(S(=O)(=O)n2c(=O)n(CC(=O)N3CCN(c4ccncc4)CC3)c3cc(Cl)ccc32)cc1` [Example 24, 5-Chloro-1-(4-methoxybenzenesulfonyl)-3-[2-oxo-2-(4-pyridin-4-ylpiperazin-1-yl)-ethyl]-1,3-dihydrobenzimidazol-2-one] here?
**A.** Its Ki is 100 to 500 nM.

**Q.** `COc1ccc(S(=O)(=O)n2c(=O)n(C(C(=O)N3CCN(c4ccncc4)CC3)c3cccc(OC)c3)c3cc(Cl)ccc32)cc1` (centres unmarked) [Example 20, 5-Chloro-1-(4-methoxybenzenesulfonyl)-3-[1-(3-methoxyphenyl)-2-oxo-2-(4-pyridin-4-ylpiperazin-1-yl)ethyl]-1,3-dihydrobenzimidazol-2-one] was tested. Which Ki did it give?
**A.** The Ki was less than 100 nM.

**Q.** With `COc1ccc(S(=O)(=O)n2c(=O)n(C(Cc3ccccc3)C(=O)N3CCN(c4ccncc4)CC3)c3cc(Cl)ccc32)c(OC)c1` (centres unmarked) [Example 28, 3-[1-Benzyl-2-oxo-2-(4-pyridin-4-ylpiperazin-1-yl)ethyl]-5-chloro-1-(2,4-dimethoxybenzenesulfonyl)-1,3-dihydrobenzimidazol-2-one] as the molecule, how does the Ki read?
**A.** Its Ki is less than 100 nM.

**Q.** `COc1ccc(S(=O)(=O)n2c(=O)n(C(C(=O)NCCN3CCN(C(=O)OC(C)(C)C)CC3)c3ccccc3)c3cc(Cl)ccc32)cc1` (centres unmarked) [Example 130, tert-Butyl 4-(2-{2-[6-chloro-3-(4-methoxybenzenesulfonyl)-2-oxo-2,3-dihydrobenzimidazol-1-yl]-2-phenylacetylamino}ethyl)piperazine-1-carboxylate] was tested. Which Ki did it give?
**A.** Its Ki is 500 to 10000 nM.

**Q.** For `COc1ccc(S(=O)(=O)n2c(=O)n(C(C(=O)N3CCN(c4cccnc4)CC3)c3ccccc3)c3cc(Cl)ccc32)cc1` (centres unmarked) [Example 94, 5-Chloro-1-(4-methoxybenzenesulfonyl)-3-[2-oxo-1-phenyl-2-(4-pyridin-3-ylpiperazin-1-yl)ethyl]-1,3-dihydrobenzimidazol-2-one], which Ki is on record?
**A.** Its Ki is 500 to 10000 nM.

**Q.** With `COc1ccc(S(=O)(=O)n2c(=O)n(C(C(=O)N3CCN(c4ccncc4)CC3)c3ccccc3OC)c3cc(Cl)ccc32)cc1` (centres unmarked) [Example 6, 5-Chloro-1-(4-methoxybenzenesulfonyl)-3-[1-(2-methoxyphenyl)-2-oxo-2-(4-pyridin-4-ylpiperazin-1-yl)ethyl]-1,3-dihydrobenzimidazol-2-one] as the molecule, how does the Ki read?
**A.** The Ki was 100 to 500 nM.

**Q.** How did the Ki turn out when `COc1ccc(S(=O)(=O)n2c(=O)n(C(C(=O)N3CCC[C@H](N)C3)c3ccccc3)c3cc(C#N)ccc32)cc1` (stereo partly drawn) [Example 240, 3-[2-((S)-3-Amino-piperidin-1-yl)-2-oxo-1-phenyl-ethyl]-1-(4-methoxybenzenesulfonyl)-2-oxo-2,3-dihydro-1H-benzoimidazole-5-carbonitrile] was run?
**A.** The Ki was 100 to 500 nM.

**Q.** With `COc1ccc(S(=O)(=O)n2c(=O)n(C(C(=O)N3CC[C@H](N4CCN(Cc5ccccc5)CC4)C3)c3ccccc3)c3cc(C#N)ccc32)cc1` (stereo partly drawn) [Example 143, 3-{2-[(S)-3-(4-Benzylpiperazin-1-yl)-pyrrolidin-1-yl]-2-oxo-1-phenylethyl}-1-(4-methoxybenzenesulfonyl)-2-oxo-2,3-dihydro-1H-benzimidazole-5-carbonitrile] as the molecule, how does the Ki read?
**A.** The Ki was less than 100 nM.

**Q.** With `COc1ccc(S(=O)(=O)n2c(=O)n(C(C(=O)NCCCN3CCNCC3)c3ccccc3)c3cc(Cl)ccc32)cc1` (centres unmarked) [Example 135, 2-[6-Chloro-3-(4-methoxybenzenesulfonyl)-2-oxo-2,3-dihydrobenzimidazol-1-yl] 2-phenyl-N-(3-piperazin-1-ylpropyl)acetamide] as the molecule, how does the Ki read?
**A.** Its Ki is 100 to 500 nM.

**Q.** How did the Ki turn out when `COc1ccc(S(=O)(=O)n2c(=O)n(C(C(=O)N3CCCC(N)C3)c3ccccc3)c3cc(Cl)ccc32)cc1` (centres unmarked) [Example 167, 3-[2-(3-Aminopiperidin-1-yl)-2-oxo-1-phenylethyl]-5-chloro-1-(4-methoxybenzenesulfonyl)-1,3-dihydrobenzimidazol-2-one] was run?
**A.** The Ki was less than 100 nM.

**Q.** `CCCN1CCN([C@H]2CCN(C(=O)C(c3ccccc3)n3c(=O)n(S(=O)(=O)c4ccsc4)c4ccc(C#N)cc43)C2)CC1` (stereo partly drawn) [Example 203, 2-oxo-3-{2-oxo-1-phenyl-2-[(S)-3-(4-propylpiperazin-1-yl)pyrrolidin-1-yl]-ethyl}-1-(thiophene-3-sulfonyl)-2,3-dihydro-1H-benzimidazole-5-carbonitrile] was tested. Which Ki did it give?
**A.** Its Ki is less than 100 nM.

**Q.** `COc1cc(C)ccc1S(=O)(=O)n1c(=O)n(C(C(=O)N2CCN(c3ccncc3)CC2)c2ccccc2)c2cc(Cl)ccc21` (centres unmarked) [Example 43, 5-Chloro-1-(2-methoxy-4-methyl-benzenesulfonyl)-3-[2-oxo-1-phenyl-2-(4-pyridin-4-ylpiperazin-1-yl)ethyl]-1,3-dihydrobenzimidazol-2-one] was tested. Which Ki did it give?
**A.** Its Ki is 500 to 10000 nM.

**Q.** With `COc1ccc(S(=O)(=O)n2c(=O)n(C(C(=O)N3CC[C@H](N4CCN(C(C)C)CC4)C3)c3ccccc3)c3cc(C#N)ccc32)cc1` (stereo partly drawn) [Example 189, 3-{2-[(S)-3-(4-Isopropylpiperazin-1-yl)pyrrolidin-1-yl]-2-oxo-1-phenylethyl}-1-(4-methoxybenzenesulfonyl)-2-oxo-2,3-dihydro-1H-benzimidazole-5-carbonitrile] as the molecule, how does the Ki read?
**A.** Its Ki is less than 100 nM.

**Q.** Which Ki does the source give for `CCCOCCNC(=O)C(c1ccccc1)n1c(=O)n(S(=O)(=O)c2ccc(OC)cc2)c2ccc(Cl)cc21` (centres unmarked) [Example 122, 2-[6-Chloro-3-(4-methoxybenzenesulfonyl)-2-oxo-2,3-dihydrobenzimidazol-1-yl]-2-phenyl-N-(2-propoxyethyl)acetamide] here?
**A.** Its Ki is 500 to 10000 nM.

**Q.** `COc1ccc(S(=O)(=O)n2c(=O)n(C(C(=O)N3CCC(c4ccncc4)C3)c3ccccc3)c3cc(Cl)ccc32)cc1` (centres unmarked) [Example 92, 5-Chloro-1-(4-methoxybenzenesulfonyl)-3-[2-oxo-1-phenyl-2-(3-pyridin-4-yl-pyrrolidin-1-yl)ethyl]-1,3-dihydrobenzimidazol-2-one] was tested. Which Ki did it give?
**A.** The Ki was 100 to 500 nM.

**Q.** For `COc1ccc(S(=O)(=O)n2c(=O)n(C(C(=O)N3CC[C@H](NC4CCN(C(C)(C)C)CC4)C3)c3ccccc3)c3cc(C#N)ccc32)cc1` (stereo partly drawn) [Example 244, 3-{2-[(S)-3-(1-tert-Butyl-piperidin-4-ylamino)-pyrrolidin-1-yl]-2-oxo-1-phenylethyl}-1-(4-methoxy-benzenesulfonyl)-2-oxo-2,3-dihydro-1H-benzoimidazole-5-carbonitrile], which Ki is on record?
**A.** Its Ki is less than 100 nM.

**Q.** Which Ki does the source give for `COc1ccccc1C(C(=O)N1CCN(c2ccncc2)CC1)n1c(=O)n(S(=O)(=O)c2ccc(C#N)cc2)c2ccc(Cl)cc21` (centres unmarked) [Example 14, 4-{5-Chloro-3-[1-(2-methoxyphenyl)-2-oxo-2-(4-pyridin-4-ylpiperazin-1-yl)ethyl]-2-oxo-2,3-dihydrobenzimidazole-1-sulfonyl}benzonitrile] here?
**A.** The Ki was 500 to 10000 nM.

**Q.** `COc1ccc(S(=O)(=O)n2c(=O)n(C(C(=O)N3CC[C@H](NCc4c[nH]cn4)C3)c3ccccc3)c3cc(C#N)ccc32)cc1` (stereo partly drawn) [Example 242, 3-(2-{(S)-3-[(1H-Imidazol-4-ylmethyl)-amino]-pyrrolidin-1-yl}-2-oxo-1-phenylethyl)-1-(4-methoxy-benzenesulfonyl)-2-oxo-2,3-dihydro-1H-benzoimidazole-5-carbonitrile; compound with trifluoroacetic acid] was tested. Which Ki did it give?
**A.** Its Ki is less than 100 nM.

**Q.** How did the Ki turn out when `COc1ccc(S(=O)(=O)n2c(=O)n(C(C(=O)N3CCN(c4ccncc4)CC3)c3ccccc3)c3ccccc32)cc1` (centres unmarked) [Example 41, 1-(4-Methoxybenzenesulfonyl)-3-[2-oxo-1-phenyl-2-(4-pyridin-4-ylpiperazin-1-yl)ethyl]-1,3-dihydrobenzimidazol-2-one] was run?
**A.** Its Ki is 500 to 10000 nM.

**Q.** How did the Ki turn out when `COc1ccc(S(=O)(=O)n2c(=O)n(C(C(=O)NCCCO)c3ccccc3)c3cc(Cl)ccc32)cc1` (centres unmarked) [Example 121, 2-[6-Chloro-3-(4-methoxybenzenesulfonyl)-2-oxo-2,3-dihydrobenzimidazol-1-yl]-N-(3-hydroxypropyl)-2-phenylacetamide] was run?
**A.** Its Ki is 500 to 10000 nM.

**Q.** For `CN1CCN(C2CCN(C(=O)C(c3ccccc3)n3c(=O)n(S(=O)(=O)c4cccc5cccnc45)c4ccc(Cl)cc43)CC2)CC1` (centres unmarked) [Example 3, 5-Chloro-3-{2-[4-(4-methylpiperazin-1-yl)piperidin-1-yl]-2-oxo-1-phenyl-ethyl}-1-(quinoline-8-sulfonyl)-1,3-dihydrobenzimidazol-2-one], which Ki is on record?
**A.** The Ki was 500 to 10000 nM.

**Q.** With `COc1ccc(S(=O)(=O)n2c(=O)n(C(C(=O)NCCCCN(C)C)c3ccccc3)c3cc(Cl)ccc32)cc1` (centres unmarked) [Example 124, 2-[6-Chloro-3-(4-methoxybenzenesulfonyl)-2-oxo-2,3-dihydrobenzimidazol-1-yl]—N-(4-dimethylaminobutyl)-2-phenylacetamide] as the molecule, how does the Ki read?
**A.** The Ki was 100 to 500 nM.

**Q.** Which Ki does the source give for `COc1ccc(S(=O)(=O)n2c(=O)n(C(C(=O)N3CCN(C4CCN(C)CC4)CC3)c3ccccc3)c3cc(Cl)c(Cl)cc32)cc1` (centres unmarked) [Example 36, 5,6-Dichloro-1-(4-methoxybenzenesulfonyl)-3-{2-[4-(1-methylpiperidin-4-yl)piperazin-1-yl]-2-oxo-1-phenylethyl}-1,3-dihydrobenzimidazol-2-one] here?
**A.** Its Ki is 500 to 10000 nM.
